Experimental findings from patent US20230242473A1, “THYROMIMETICS” (Autobahn Therapeutics, Inc., priority 2020, published 2023) are described below.

This assay has as its target T1, recombinant human FAAH (rhFAAH) (Homo sapiens, UniProt O00519).
T1 construct: purchased Cayman Chemical (Ann Arbor, Mich., USA)
T1 sequence (O00519 1-579): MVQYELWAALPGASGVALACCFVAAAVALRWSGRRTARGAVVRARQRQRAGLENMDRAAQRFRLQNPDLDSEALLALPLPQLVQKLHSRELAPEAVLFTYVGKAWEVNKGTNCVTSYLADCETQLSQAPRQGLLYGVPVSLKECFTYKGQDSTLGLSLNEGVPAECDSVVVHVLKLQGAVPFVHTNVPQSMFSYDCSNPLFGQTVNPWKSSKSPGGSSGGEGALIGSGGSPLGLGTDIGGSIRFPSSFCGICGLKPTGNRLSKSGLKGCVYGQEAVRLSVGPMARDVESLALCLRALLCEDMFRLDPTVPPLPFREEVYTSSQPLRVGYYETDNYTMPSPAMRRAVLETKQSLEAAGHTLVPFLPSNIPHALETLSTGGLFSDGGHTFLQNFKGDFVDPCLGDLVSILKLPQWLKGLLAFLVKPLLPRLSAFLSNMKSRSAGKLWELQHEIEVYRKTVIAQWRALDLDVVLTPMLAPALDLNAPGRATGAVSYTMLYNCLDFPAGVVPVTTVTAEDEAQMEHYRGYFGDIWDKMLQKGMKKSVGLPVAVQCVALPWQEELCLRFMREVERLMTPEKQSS
The assay is described as follows: FAAH substrate evaluation (formation of acid metabolite, LC-MS/MS). The class given is in vitro ADME. The note with it: 0.5 ng/μL rhFAAH, 1 μM test compound, pH 8.0, room temperature, 0-60 minutes. How it is done:
Purified recombinant human FAAH (rhFAAH) was purchased from Cayman Chemical (Ann Arbor, Mich., USA). The total volume for each incubation was 400 μL containing a final 0.5 ng/μL rhFAAH, 1 μM test compound, 1.25% ethanol or 1 μM PF-3845 (FAAH inhibitor), and 0.1% bovine serum albumin in Tris-EDTA buffer at pH 8.0). The positive control was LL-341001. The incubation was conducted at the room temperature. At 0, 5, 15, 30 and 60 minutes, an aliquot of 30 μL reaction mixtures was removed and mixed with 300 μL acetonitrile containing 5 ng/mL terfenadine and 10 ng/mL tolbutamide as internal standards to quench the reaction. The resulting mixture was centrifuged at 4000 rpm, 4° C. for 15 minutes, and 100 μL supernatant was ready for LC-MS/MS analysis to measure the formation of acid metabolite.
Acquity Ultra Performance LC system from Waters was used for sample analysis. The chromatography was performed on a reverse phase Kinetex 2.6 μm C18 column, 2.1×30 mm, 100 Å. The mobile phase A comprised of 0.10% formic acid in water and mobile phase B comprised of 0.1% formic acid in acetonitrile with a 2-min run time at the flow rate of 0.8 mL/min for the acid metabolite from positive control or a 1.5 min run time at the flow rate of 0.9 mL/min for the acid metabolite of test compounds. The mass spectrometer (API-5500 and API Q Trap 4000 Applied Biosystems/MDS SCIEX Instruments, Framingham, Mass., USA) was operated under ESI positive or negative ion MRM mode.
The formation of acid metabolite was monitored and quantified using one calibration point of 1 μM. The observed rate constant (ke) for the acid metabolite formation was calculated by plotting the metabolite concentration versus time of incubation with the slope being ke and is shown in Table 4.

With `CNC(=O)COc1ccc(Cc2ccc(O)c(C(C)C)c2F)c(C(C)C)c1` [Compound 43, 2-(4-(2-fluoro-4-hydroxy-3-isopropylbenzyl)-3-isopropylphenoxy)-N-methylacetamide], the “ke, observed rate constant for the acid metabolite formation” value (shortened to “ke, observed rate constant”) is “A (A = ke is less than 2.0 and more than or equal to 0.05)”. Regarding `CNC(=O)COc1cc(C)c(Cc2ccc(O)c(C(C)C)c2F)c2c1CCC2` [Compound 11, 2-((7-(2-fluoro-4-hydroxy-3-isopropylbenzyl)-6-methyl-2,3-dihydro-1H-inden-4-yl)oxy)-N-methylacetamide], the “ke, observed rate constant” value was “A (A = ke is less than 2.0 and more than or equal to 0.05)”. Take `CNC(=O)COc1cc(C(C)C)c(Cc2ccc(O)c(C(C)C)c2)cc1F` [Compound 47, 2-(2-fluoro-4-(4-hydroxy-3-isopropylbenzyl)-5-isopropylphenoxy)-N-methylacetamide]: the “ke, observed rate constant” value was “A (A = ke is less than 2.0 and more than or equal to 0.05)”. For `CNC(=O)COc1cc(Cl)c(Cc2ccc(O)c(C(C)C)c2F)cc1F` [Compound 39, 2-(5-chloro-2-fluoro-4-(2-fluoro-4-hydroxy-3-isopropylbenzyl)phenoxy)-N-methylacetamide], the “ke, observed rate constant” value is “A (A = ke is less than 2.0 and more than or equal to 0.05)”.

Turning to `CC(C)c1cc(Cc2cc(F)c(OCC(=O)N(C)C)cc2C(C)C)ccc1O` [Compound 48, 2-(2-fluoro-4-(4-hydroxy-3-isopropylbenzyl)-5-isopropylphenoxy)-N,N-dimethylacetamide], the “ke, observed rate constant” value is “A (A = ke is less than 2.0 and more than or equal to 0.05)”.
